Assay: solubility determination by Chasing Equilibrium pH-metric titration
Format: physicochemical
Description: In the Dissolution stage, the test solution is titrated with base titrant. In the Seeking Precipitation and Additional Precipitation stages, the test solution is titrated with acid titrant.
After the final data point of the Additional Precipitation stage has been collected, the method moves on to the Chasing Equilibrium stage. Chasing Equilibrium for an acidic sample is based on the following principles:
The first points are collected while adding base titrant to a supersaturated test solution. The addition of titrant is controlled by a computer program. The slope decreases with each aliquot of base that is added. […] Another aliquot of base is added to confirm that the slope is negative. If the slope remains negative, another data point is taken after adding no titrant. […] By successively adding aliquots of base and acid, the slope can be forced to change direction. When the slope has changed direction several (e.g. five) times the Chasing Equilibrium stage of the procedure is deemed to be complete.
The concentration of unionised solute in solution is calculated for each point in FIG. 7, and plotted against slope (pH/min) as shown in FIG. 8. The points are then connected by a line in the same order that they appeared in FIG. 7. The points corresponding to where the line crosses the zero value of the slope (pH/min) axis are determined by interpolation. The concentration equivalent to these zero slope, crossing points is determined. The solubility is then obtainable as the mean concentration calculated from the several zero slope, crossing points.
For each point located on either side of a zero slope crossing, the amount of neutral sample in solution could be calculated in the following steps:
1. […]
4. The concentration of free positive ions (e.g. K^+) is determined from the amount of base titrant (e.g. KOH) plus any positive ions in the test compound if it was a salt: [K^+]=(vbcb+mszs+/wf)/vt • wherein: cb is the concentration of base titrant • ms is the sample weight of test compound • zs+ is the charge of any positive salt counter-ions • wf is the formula weight of the test compound. […]

- solubility thermodynamic (0.15 M KCl solution titrated with acid and base, saline or isotonic, thermodynamic from solid, straight line interpolation of points A and B to zero pH slope, 0.15M KCl solution, sample introduced as sodium salt, read-out: equilibrium solubility (concentration of unionised compound at zero pH slope)): ~0.732 µg/mL
- dissolved neutral test sample (point A, one side of zero-slope crossing, pH=5.64453, pH slope=2.87 E-05): 759 ng/mL
- dissolved neutral test sample (point B, other side of zero-slope crossing, pH=5.70437, pH slope=-3.5 E-06): 728 ng/mL
SMILES: O=C(O)Cc1ccccc1Nc1c(Cl)cccc1Cl [diclofenac]

Reference: US7723119B2, “Method for determining solubility of a chemical compound” (Sirius Analytical Instruments Ltd., priority 2004, dated 2010)
